# Measured values as given in US20220220450A1, “FABRICATION OF A BIOMIMETIC PLATFORM SYSTEM AND METHODS OF USE” (Cornell University Center for Technology Licensing, priority 2017, published 2022).
# How the values were obtained:
# [1] = system: HS578T cancer cells; test: Doxorubicin response in 3D-breast component versus 3D-collagen only biomimetic platform system; type: cell-based, human; details: doxorubicin 0-10 μM, FIG. 21A-21D
# [2] = system: adipocytes; test: Doxorubicin permeability of 3D-breast component biomimetic platform without cancer cells (BM only); type: cell-based, human; details: 0.6% (w/v) collagen, 15% v/v adipocytes, stromal cells, breast organoids, no cancer cells; increasing doxorubicin concentrations 0-10 μM; FIG. 19C
# [3] = system: MDA-MB468 cancer cells; test: Doxorubicin response in 3D-breast component versus 3D-collagen only biomimetic platform system; type: cell-based, human; details: doxorubicin 0-10 μM, FIG. 20C
# [4] = system: MDA-MB231 cancer cells; test: Doxorubicin response and uptake in 3D-breast component biomimetic platform system with cancer cells
# Text: Lentivirus transfected human cell lines were selected for use in the biomimetic platform systems disclosed herein. Color selection was randomly assigned to ensure proper differentiation between cell types under fluorescent and confocal microscopy. […] Cancer cell lines, MDA-MB231, MDA-MB468, and HS-578T were transfected with mCherry lentivirus.
# Surgical specimens were obtained. In a sterile biosafety hood, breast specimens were homogeneously minced. Excess lipid was carefully removed from tissue by suction, and minced tissue was mixed on a 1:1 ratio with complete Ham's media containing 1 mg/mL of collagenase Type I and 0.01 mg/mL hyaluronidase (for adipocytes and Adipose derived stem cell (ASC)-containing stromal vascular fraction (SVF) isolation) or 1 mg/mL of collagenase type IA and 0.01 mg/mL hyaluronidase (for isolation of breast organoids).
# The total amount of 1×M199 media needed for collagen dilution during the neutralization process was reduced by 2504, to allow for the volume needed for reconstitution of cellular components that were added to neutralize collagen. The Collagen platform without breast components was fully diluted by adding 250 microliters of media with desired number of vascular cells (e.g., pericytes), while the biomimetic platform with breast components was diluted by adding 250 μL of MEGM media containing extracted organoids, SVF containing ASCs, and cancer cells. Components were mixed homogeneously into the neutralized collagen, and mature adipocytes were added to the biomimetic platform containing breast stroma at 15% v/v (v/v refers to the volume of the adipocytes+SVF over the total volume of the biocompatible substrate present in the biomimetic platform system described herein).
# Biomimetic constructs were fixed in formaldehyde for 30 minutes followed by 3 consecutive 5-minute Phosphate Buffered Saline (PBS) washes. […] Images were analyzed by confocal microscopy. […]
# Confocal images for doxorubicin response were analyzed using Imaris™ for visualization of 3D image volume. […]
# [5] = system: MDA-MB231 cancer cells; test: Doxorubicin response of cancer cells in 3D-collagen only biomimetic platform system; type: cell-based, human; details: 0.6% (w/v) collagen, 200,000 MDA-MB231 cells labelled with mCherry; 1-10 μM doxorubicin; FIG. 19B
# Method: Images were analyzed by confocal microscopy.
# [6] = 0.6% (w/v) collagen, 15% v/v adipocytes, stromal cells, breast organoids, 200,000 MDA-MB231 cells, 1-10 μM doxorubicin, FIG. 19A
smiles,measurement,setting,value
COc1cccc2c1C(=O)c1c(O)c3c(c(O)c1C2=O)C[C@@](O)(C(=O)CO)C[C@@H]3O[C@H]1C[C@H](N)[C@H](O)[C@H](C)O1 [doxorubicin],"sensitivity of cancer cells to doxorubicin, 3D-breast component versus 3D-collagen only platform",[1],decreased sensitivity
same,permeability of the biomimetic platform and adipocytes to doxorubicin (signal),[2],increased signal
same,"sensitivity of cancer cells to doxorubicin, 3D-breast component versus 3D-collagen only platform",[3],decreased sensitivity
same,absolute number of cells (mCherry and DAPI signals),[4]; [6],decrease in the absolute number of cells
same,doxorubicin uptake (intrinsic fluorescence signal),[4]; [6],uptake was increased
same,"sensitivity of cancer cells to doxorubicin, 3D-breast component versus 3D-collagen only platform","[4]; MDA-MB231, doxorubicin 0-10 μM, FIG. 20A-20B",decreased sensitivity
same,absolute number of cells (mCherry and DAPI signals),[5],decrease in the absolute number of cells
